The values below come from US8828950B2, “Caspase inhibitors in the treatment of infection-associated preterm delivery” (Cedars-Sinai Medical Center, priority 2007, dated 2014).

“Also recorded” adds a separate entry of the source. Residues, ends and D or L forms follow the SMILES beside them. *: point of attachment. Cbz = O=C(OCc1ccccc1)*; CH2F = FC*

The subject of assay [1] is pregnant mice injected with LPS. Briefly: LPS-induced pup mortality/abortion in pregnant Cox2/luciferase mice (bioluminescence imaging). The format is in vivo, mouse. As to conditions: for pup (fetal) mortality / abortion after LPS: 0.25 mg ip 5-30 minutes prior to each ip LPS injection, 14 day pregnant mouse. An excerpt:
Therefore, the use of caspase inhibitors confers a protective effect not seen by merely controlling infection through the use of antibiotics. As one of skill in the art will realize that the murine model can provide a guide to expected outcomes in human pregnancy, it is believed that caspase inhibitor treatment will be effective in the treatment of pregnant women with intrauterine infection so as to prevent preterm delivery and improve pregnancy outcome. This is a novel mammalian model for the improvement of pregnancy outcome.
Our experimental test method is based on the use of a mouse model in which inflammation (as assessed by Cox2 promoter activation) is detected optically by using a transgenic animal in which activation of the promoter results in synthesis of luciferase. When luciferin is subsequently injected, the presence of luciferase is detected by a sensitive camera as the production of light. The detected inflammation is indicative of the infection caused by the LPS injection.
In FIG. 1, pregnant mice are imaged. The mice were first mated with Cox2/luciferase males so that the pups would be positive for the Cox2/luciferase construct. The mice were treated with LPS which is normally produced by bacteria and results in inflammation. We injected pregnant mice with 0.1 microgram/ml LPS intraperitoneally (ip) for the control mice 0-24 hours (using a 2, 4, 6, 12 hour time course) prior to the imaging. The resulting inflammation causes the upregulation of Cox2 promoter in the pups resulting in the synthesis of luciferase. […] The treatment mice were given 0.25 mg ip of the pancaspase inhibitor 5-30 minutes prior to each LPS injection.
In the case of the control mouse (right-hand side of FIG. 1) inflammation results in the abortion of the pups (no bioluminescence detected). […] Thus, in the case of inflammation resulting from infection (as is common in cases of preterm delivery in humans) effective treatment includes antibiotic to reduce or eliminate the infection and caspase inhibitor to prevent preterm delivery.

Assay [2] has as its system pregnant CD1 mice injected with HK-GBS. Briefly: HK-GBS-induced preterm delivery in day 14.5 pregnant CD1 mice. Format: in vivo, mouse. On the procedure:
To assess whether caspase inhibition prevented HK-GBS-induced preterm delivery, unanesthetized day 14.5 pregnant CD1 mice (Harlan Laboratories, Madison, Wis.), which breed more effectively than inbred C57BL/6J mice, were pre-treated intraperitoneally with PBS, DMSO or the pancaspase inhibitor Z-VAD-FMK (10 mg/kg) 30 minutes prior to intraperitoneal injection with either 10^9 HK-GBS bacteria or medium. There were no differences in delivery outcomes following intraperitoneal injection with GBS whether or not animals were pretreated with either PBS or DMSO (diluents for the caspase inhibitor). Therefore these separate control pre-treatments are combined for the analyses.
Chi-square analysis was done to assess the effect of Z-VAD-FMK pretreatment on HK-GBS-induced preterm delivery.
Based upon that observation, we hypothesized that the generalized inhibition of caspases would prevent microbial antigen-induced preterm delivery in the mouse pregnancy model. In order to test this hypothesis we pre-treated day 14.5 pregnant CD1 mice either with Z-VAD-FMK (10 mg/kg dissolved in DMSO/PBS) or with medium intraperitoneally 30 minutes prior to intraperitoneal HK-GBS injection.

Assay [3] has as its system primary human trophoblasts and fibroblasts. The following applies: in vitro pretreatment; Equils et al., 2006; cited from earlier work.

Regarding `COC(=O)C[C@H](NC(=O)[C@H](C)NC(=O)[C@@H](NC(=O)OCc1ccccc1)C(C)C)C(=O)CF` [Z-VAD-FMK, carbobenzoxy-valyl-alanyl-aspartyl-[O-methyl]-fluoromethylketone] (Cbz-Val-Ala-Asp(OMe)-CH2F), the “pup (fetal) mortality / abortion after LPS” value in assay [1] was “prevents pup mortality; also recorded: the pups do not abort”; in assay [1] (listed as Z-VAD FMK), “reduces fetal mortality”; in assay [1] (listed as pancaspase inhibitor), “maintenance of pregnancy”. In addition, the “inflammation as assessed by Cox2 promoter activation (bioluminescence)” value in assay [1] (0.25 mg ip prior to ip LPS injection) is “continued inflammation; also recorded: does not prevent inflammation”. Further, the “Delivery <18 hr (%)” value in assay [2] (10 mg/kg ip 30 minutes prior to ip 10^9 HK-GBS, 1 of n = 6, GBS alone 12 (86%) of n = 14, p value 0.0072) is 1 (17%). Further, in assay [2] (10 mg/kg ip 30 minutes prior to ip 10^9 HK-GBS, 2 of n = 6, GBS alone 0 of n = 14, p value 0.079), the “Delivery 18-24 hrs (%)” value is 2 (33%). The “Preterm Delivery (<24 hours)” value in assay [2] (10 mg/kg ip 30 minutes prior to ip 10^9 HK-GBS, 3 of n = 6, GBS alone 12 (86%) of n = 14, p value 0.13) was 3 (50%). In addition, the “effect on HK-GBS-induced preterm delivery” value in assay [2] (ip pre-treatment 10 mg/kg, ip HK-GBS) is given as “delayed i.p. HK-GBS-induced preterm delivery; also recorded: significantly delayed preterm delivery at 18 hours”. Also, the cHSP60-induced apoptosis entry in assay [3] was “prevented Chlamydia heat shock protein (cHSP60)-induced apoptosis”.
